Results taken from BindingDB's records for doi:10.1111/j.1747-0285.2009.00902.x (Institut Des BiomolÉCules Max Mousseron (Ibmm), 2009).
Where “and” joins values, the source holds several entries; their conditions need not be identical. Identical values can stand only once.

Target: Carbonic anhydrase 6 (Homo sapiens, UniProt P23280)
Assay: Enzyme Inhbition Assay
Conditions: pH 7.5; 20 °C
Text: Inhibition assay using carbonic anhydrases with an SX.18MV-R, a stopped-flow instrument from Applied Photophysics was used for assaying the CA catalyzed CO2 hydration activity.

Sequence of Carbonic anhydrase 6 (P23280 whole entry): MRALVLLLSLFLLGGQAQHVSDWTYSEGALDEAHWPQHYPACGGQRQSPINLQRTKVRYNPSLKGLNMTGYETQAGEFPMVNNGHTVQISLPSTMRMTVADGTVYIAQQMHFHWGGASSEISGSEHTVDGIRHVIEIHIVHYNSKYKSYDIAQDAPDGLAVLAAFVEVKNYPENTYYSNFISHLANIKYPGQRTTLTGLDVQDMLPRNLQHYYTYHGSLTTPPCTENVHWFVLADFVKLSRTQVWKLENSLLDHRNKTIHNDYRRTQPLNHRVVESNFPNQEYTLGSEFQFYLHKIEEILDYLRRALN

SMILES: NS(=O)(=O)c1ccc(NC2OCC(O)C(O)C2O)cc1 (configuration not stated)
- Ki: 3.5 nM and 5.1 nM and 0.56 nM

SMILES: CC1OC(Nc2ccc(S(N)(=O)=O)cc2)C(O)C(O)C1O (configuration not stated)
- Ki: 3.4 nM and 13 nM
